# Source: ChEMBL document CHEMBL1127417, “Multisubstrate inhibition of 4-hydroxybenzoate 3-monooxygenase” (J Med Chem, 1994)
# Columns and labels:
# [1] = molecular target: T1, p-hydroxybenzoate hydroxylase (Pseudomonas fluorescens, UniProt P00438); experiment: Inhibitory concentration against p-hydroxybenzoate hydroxylase (PHBH) from Pseudomonas fluorescence
# [2] = molecular target: T1, p-hydroxybenzoate hydroxylase; experiment: Binding affinity against p-hydroxybenzoate hydroxylase (PHBH) from Pseudomonas fluorescence competing with NADPH
# [3] = molecular target: T1, p-hydroxybenzoate hydroxylase; experiment: Binding affinity against p-hydroxybenzoate hydroxylase (PHBH) from Pseudomonas fluorescence competing with p-hydroxy benzoic acid
# T1 sequence (P00438 whole entry): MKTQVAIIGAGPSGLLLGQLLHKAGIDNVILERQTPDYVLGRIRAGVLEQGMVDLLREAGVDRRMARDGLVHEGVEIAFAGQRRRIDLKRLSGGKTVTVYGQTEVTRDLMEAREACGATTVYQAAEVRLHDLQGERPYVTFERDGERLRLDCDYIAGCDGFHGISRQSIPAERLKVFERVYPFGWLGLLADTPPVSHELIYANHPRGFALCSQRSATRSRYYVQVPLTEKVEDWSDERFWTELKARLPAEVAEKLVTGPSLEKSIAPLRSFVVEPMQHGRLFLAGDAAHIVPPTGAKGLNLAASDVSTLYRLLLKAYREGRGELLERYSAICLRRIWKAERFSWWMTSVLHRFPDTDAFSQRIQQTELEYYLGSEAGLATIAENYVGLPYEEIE
IC50 [1],Ki [2],Ki [3],Structure (SMILES)
100000 nM,–,–,O=C(O)c1ccc(O)c(OCc2ccccc2)c1
–,69 nM,59 nM,O=C(O)c1ccc(O)cc1OCc1ccccc1
